Where two headings read alike, the source gives them in different places.

In assay [1] the target is EGFR del19/T790M/C797S (Homo sapiens, UniProt P00533, C797S/DEL746-750/T790M). Kind of assay: Biochemical EGFR kinase assay (Lance Ultra TR-FRET), triple mutant del19/T790M/C797S. Put shortly: (§1)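 Kinase activity is measured by TR-FRET phosphopeptide detection. Compounds span 0.003 μM to 10 μM; the 1 h reaction at room temperature is quenched with EDTA, then labelled antibody (2 nM) is incubated 60 min before reading.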
(In TR-FRET formats the signal depends on donor and acceptor labels being close together.)

Assay [2] deals with EGFR L858R/T790M/C797S (Homo sapiens, UniProt P00533, C797S/L858R/T790M). Kind of assay: Biochemical EGFR kinase assay (Lance Ultra TR-FRET), triple mutant L858R/T790M/C797S. Put shortly:
as §1

In assay [3] the target is EGFR del19/C797S (Homo sapiens, UniProt P00533, C797S/DEL746-750). Kind of assay: Biochemical EGFR kinase assay (Lance Ultra TR-FRET), double mutant del19/C797S. Put shortly: as §1
Sequence of EGFR del19/C797S (P00533 with tags, fused parts or gaps DEL746-750/C797S): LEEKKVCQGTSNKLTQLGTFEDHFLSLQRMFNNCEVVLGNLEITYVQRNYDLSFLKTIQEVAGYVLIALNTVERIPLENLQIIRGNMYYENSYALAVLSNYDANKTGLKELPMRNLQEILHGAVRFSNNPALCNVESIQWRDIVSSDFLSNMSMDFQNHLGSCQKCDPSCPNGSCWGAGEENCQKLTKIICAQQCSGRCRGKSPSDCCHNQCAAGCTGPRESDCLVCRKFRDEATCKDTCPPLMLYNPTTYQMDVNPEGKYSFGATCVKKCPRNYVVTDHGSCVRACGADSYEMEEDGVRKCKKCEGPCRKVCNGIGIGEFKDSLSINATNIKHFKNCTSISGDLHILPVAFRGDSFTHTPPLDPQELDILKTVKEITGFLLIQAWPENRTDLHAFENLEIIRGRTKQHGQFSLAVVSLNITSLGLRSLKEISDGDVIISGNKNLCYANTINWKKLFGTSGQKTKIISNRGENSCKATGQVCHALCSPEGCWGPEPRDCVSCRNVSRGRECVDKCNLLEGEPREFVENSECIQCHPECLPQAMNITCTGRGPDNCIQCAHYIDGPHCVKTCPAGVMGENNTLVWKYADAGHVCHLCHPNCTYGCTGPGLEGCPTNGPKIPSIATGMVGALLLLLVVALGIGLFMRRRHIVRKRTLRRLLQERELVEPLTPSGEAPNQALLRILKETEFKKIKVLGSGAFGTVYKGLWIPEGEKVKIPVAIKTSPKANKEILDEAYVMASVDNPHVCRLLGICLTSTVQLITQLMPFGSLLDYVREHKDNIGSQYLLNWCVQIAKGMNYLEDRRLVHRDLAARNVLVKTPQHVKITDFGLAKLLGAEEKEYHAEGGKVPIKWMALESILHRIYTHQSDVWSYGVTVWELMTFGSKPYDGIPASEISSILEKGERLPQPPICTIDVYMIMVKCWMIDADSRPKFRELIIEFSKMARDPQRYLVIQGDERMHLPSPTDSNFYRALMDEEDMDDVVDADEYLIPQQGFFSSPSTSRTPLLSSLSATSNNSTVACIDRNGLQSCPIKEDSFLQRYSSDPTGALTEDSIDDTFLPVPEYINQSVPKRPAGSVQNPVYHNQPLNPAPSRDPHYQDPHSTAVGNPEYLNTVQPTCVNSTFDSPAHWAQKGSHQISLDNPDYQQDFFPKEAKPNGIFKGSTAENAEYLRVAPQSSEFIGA
Assay [4] has as its target EGFR wildtype (Homo sapiens, UniProt P00533). Kind of assay: Biochemical EGFR kinase assay (Lance Ultra TR-FRET), wildtype. Put shortly:
as §1

In assay [5] the target is EGFR L858R/C797S (Homo sapiens, UniProt P00533, C797S/L858R). Kind of assay: Biochemical EGFR kinase assay (Lance Ultra TR-FRET), double mutant L858R/C797S. Put shortly:
as §1

Where [6] appears, read: ATP at Km, read-out: IC50 del19/T790M/C797S, Km ATP.
Setting [7] is: IC50 del19/T790M/C797S, 100 μM ATP.
[8] abbreviates: ATP at Km, read-out: IC50 L858R/T790M/C797S, Km ATP.
Where [9] appears, read: IC50 L858R/T790M/C797S, 100 μM ATP.
The mark [10] stands for this setting: ATP at Km, read-out: IC50 del19/C797S, Km ATP.
[11] abbreviates: ATP at Km, read-out: IC50 WT, Km ATP.
Setting [12] is: ATP at Km, read-out: IC50 L858R/C797S, Km ATP.

Sequence of EGFR L858R/T790M/C797S (P00533 25-1210 T790M/C797S/L858R): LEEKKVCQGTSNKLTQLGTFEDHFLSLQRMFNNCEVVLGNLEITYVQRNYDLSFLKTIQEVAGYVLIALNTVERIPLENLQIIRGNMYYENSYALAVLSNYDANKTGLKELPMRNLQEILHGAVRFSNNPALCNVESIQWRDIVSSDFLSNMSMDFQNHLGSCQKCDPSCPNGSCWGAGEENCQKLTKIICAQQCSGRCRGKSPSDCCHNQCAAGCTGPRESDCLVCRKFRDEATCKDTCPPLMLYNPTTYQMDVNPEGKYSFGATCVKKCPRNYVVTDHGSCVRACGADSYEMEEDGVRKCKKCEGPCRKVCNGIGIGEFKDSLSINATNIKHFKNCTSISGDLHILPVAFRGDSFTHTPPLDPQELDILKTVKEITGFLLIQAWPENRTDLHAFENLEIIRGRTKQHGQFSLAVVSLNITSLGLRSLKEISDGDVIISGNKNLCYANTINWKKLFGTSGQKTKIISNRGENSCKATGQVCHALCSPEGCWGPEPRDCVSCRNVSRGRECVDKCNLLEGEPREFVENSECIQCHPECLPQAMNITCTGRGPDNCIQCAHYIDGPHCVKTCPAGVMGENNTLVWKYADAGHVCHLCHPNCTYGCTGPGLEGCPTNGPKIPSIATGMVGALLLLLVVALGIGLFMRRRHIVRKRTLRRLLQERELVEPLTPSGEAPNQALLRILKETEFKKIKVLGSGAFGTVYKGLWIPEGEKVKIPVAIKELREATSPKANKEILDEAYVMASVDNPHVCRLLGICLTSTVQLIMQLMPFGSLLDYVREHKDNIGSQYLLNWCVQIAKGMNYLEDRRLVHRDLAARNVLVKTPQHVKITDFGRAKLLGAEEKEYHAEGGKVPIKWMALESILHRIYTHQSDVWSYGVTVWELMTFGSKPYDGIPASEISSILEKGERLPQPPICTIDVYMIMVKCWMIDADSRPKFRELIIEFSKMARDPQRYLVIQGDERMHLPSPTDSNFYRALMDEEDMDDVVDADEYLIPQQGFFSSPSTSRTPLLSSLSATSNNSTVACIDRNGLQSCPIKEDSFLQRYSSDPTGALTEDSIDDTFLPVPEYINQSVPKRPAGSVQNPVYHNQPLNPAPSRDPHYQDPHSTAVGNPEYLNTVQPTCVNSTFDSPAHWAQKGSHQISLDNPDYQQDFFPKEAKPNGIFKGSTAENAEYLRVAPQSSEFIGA
Sequence of EGFR wildtype (P00533 25-1210): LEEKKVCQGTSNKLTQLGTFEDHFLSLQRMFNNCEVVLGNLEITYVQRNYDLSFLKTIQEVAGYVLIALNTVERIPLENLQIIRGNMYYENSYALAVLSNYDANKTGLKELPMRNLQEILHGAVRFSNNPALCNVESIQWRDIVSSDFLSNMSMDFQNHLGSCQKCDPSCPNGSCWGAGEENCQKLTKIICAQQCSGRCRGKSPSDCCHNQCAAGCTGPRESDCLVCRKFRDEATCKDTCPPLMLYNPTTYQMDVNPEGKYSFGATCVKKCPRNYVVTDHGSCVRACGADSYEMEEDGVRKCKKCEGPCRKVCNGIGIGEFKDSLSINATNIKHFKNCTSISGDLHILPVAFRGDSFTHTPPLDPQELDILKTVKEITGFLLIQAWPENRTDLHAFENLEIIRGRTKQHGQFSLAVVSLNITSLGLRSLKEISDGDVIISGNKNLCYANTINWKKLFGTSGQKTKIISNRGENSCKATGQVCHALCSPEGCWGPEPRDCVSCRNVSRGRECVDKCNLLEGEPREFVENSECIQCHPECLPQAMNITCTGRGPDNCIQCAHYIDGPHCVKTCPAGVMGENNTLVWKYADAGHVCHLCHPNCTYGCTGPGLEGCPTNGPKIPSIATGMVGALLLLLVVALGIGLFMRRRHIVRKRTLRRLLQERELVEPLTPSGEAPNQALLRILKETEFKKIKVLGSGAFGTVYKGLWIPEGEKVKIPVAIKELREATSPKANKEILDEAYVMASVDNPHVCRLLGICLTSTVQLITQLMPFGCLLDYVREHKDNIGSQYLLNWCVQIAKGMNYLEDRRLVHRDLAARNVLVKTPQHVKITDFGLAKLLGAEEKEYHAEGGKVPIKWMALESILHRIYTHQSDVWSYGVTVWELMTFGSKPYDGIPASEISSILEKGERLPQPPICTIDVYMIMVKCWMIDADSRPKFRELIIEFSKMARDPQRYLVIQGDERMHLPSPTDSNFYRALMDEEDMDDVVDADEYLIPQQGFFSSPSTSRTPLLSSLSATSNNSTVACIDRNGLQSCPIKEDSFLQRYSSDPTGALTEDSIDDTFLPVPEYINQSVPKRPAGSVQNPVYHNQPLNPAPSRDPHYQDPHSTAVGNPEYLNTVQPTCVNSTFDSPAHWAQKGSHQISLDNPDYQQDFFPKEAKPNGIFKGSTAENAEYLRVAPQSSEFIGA
Sequence of EGFR L858R/C797S (P00533 25-1210 C797S/L858R): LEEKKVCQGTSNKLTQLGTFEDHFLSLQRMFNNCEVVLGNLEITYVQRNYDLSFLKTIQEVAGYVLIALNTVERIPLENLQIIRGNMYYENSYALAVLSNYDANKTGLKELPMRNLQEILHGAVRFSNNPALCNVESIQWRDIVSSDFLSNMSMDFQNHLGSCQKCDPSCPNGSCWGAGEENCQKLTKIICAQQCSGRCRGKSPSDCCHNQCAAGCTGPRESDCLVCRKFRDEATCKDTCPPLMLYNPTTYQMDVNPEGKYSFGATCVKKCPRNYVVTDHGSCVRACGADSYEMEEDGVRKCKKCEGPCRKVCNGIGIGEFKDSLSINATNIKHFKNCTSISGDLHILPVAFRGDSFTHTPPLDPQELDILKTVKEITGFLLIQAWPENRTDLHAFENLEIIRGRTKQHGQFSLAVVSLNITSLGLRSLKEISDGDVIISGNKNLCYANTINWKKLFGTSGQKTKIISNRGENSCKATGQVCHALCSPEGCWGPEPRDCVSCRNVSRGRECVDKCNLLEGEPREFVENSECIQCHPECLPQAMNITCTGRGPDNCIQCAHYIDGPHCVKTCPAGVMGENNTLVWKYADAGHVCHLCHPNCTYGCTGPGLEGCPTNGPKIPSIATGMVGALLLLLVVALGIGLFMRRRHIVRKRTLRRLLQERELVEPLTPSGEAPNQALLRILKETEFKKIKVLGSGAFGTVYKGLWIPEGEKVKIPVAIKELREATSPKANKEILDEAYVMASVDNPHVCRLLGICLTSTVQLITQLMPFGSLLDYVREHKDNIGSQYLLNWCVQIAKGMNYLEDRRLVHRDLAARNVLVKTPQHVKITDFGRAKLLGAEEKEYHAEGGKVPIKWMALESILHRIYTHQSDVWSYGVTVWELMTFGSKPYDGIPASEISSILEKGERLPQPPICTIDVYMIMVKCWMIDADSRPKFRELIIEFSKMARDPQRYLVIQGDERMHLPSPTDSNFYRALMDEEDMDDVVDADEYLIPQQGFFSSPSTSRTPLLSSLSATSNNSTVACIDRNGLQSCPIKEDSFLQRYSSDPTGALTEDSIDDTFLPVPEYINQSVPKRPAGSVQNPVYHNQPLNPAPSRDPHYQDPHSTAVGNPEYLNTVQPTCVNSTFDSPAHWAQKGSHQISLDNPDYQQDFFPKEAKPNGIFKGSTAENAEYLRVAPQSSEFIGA

With `O=S(=O)(C1CC1)n1cc(-c2nccc(Nc3cc(N[C@H]4CC[C@@H](CCO)CC4)c(-c4ccc(CC(F)(F)F)cn4)cn3)n2)cn1` [Example 223, 2-((1s,4s)-4-((6′-((2-(1-(Cyclopropylsulfonyl)-1H-pyrazol-4-yl)pyrimidin-4-yl)amino)-5-(2,2,2-trifluoroethyl)-[2,3′-bipyridin]-4′-yl)amino)cyclohexyl)ethan-1-ol], the IC50 in assay [1] (setting [6]) came to 6.4 nM; in assay [1] (setting [7]), 3.5 nM; in assay [2] (setting [8]), 2.4 nM; in assay [2] (setting [9]), 5 nM; in assay [3] (setting [10]), 10.2 nM; in assay [3] (IC50 del19/C797S, 100 μM ATP), 14.6 nM. Moreover, the IC50 in assay [4] (setting [11]) was 11.5 nM; in assay [4] (IC50 WT, 100 μM ATP) it was greater than 10000 nM; in assay [5] (setting [12]) it was 4.4 nM; in assay [5] (IC50 L858R/C797S, 100 μM ATP), 116 nM.
For `C[C@]1(O)CC[C@@H](Nc2cc(Nc3ccnc(-c4cnn(S(=O)(=O)C5CC5)c4)n3)ncc2-c2ccc(N3CC(F)(F)C3)cn2)CC1` [Example 224, (1s,4s)-4-((6′-((2-(1-(Cyclopropylsulfonyl)-1H-pyrazol-4-yl)pyrimidin-4-yl)amino)-5-(3,3-difluoroazetidin-1-yl)-[2,3′-bipyridin]-4′-yl)amino)-1-methylcyclohexan-1-ol], the IC50 turned out to be 2 nM in assay [1] (setting [6]); 1.6 nM in assay [1] (setting [7]); 0.4 nM in assay [2] (setting [8]); 1.4 nM in assay [2] (setting [9]); 2.1 nM in assay [3] (setting [10]); 3.5 nM in assay [3] (IC50 del19/C797S, 100 μM ATP). Further, the IC50 was 5.2 nM in assay [4] (setting [11]); greater than 10000 nM in assay [4] (IC50 WT, 100 μM ATP); 171 nM in assay [5] (IC50 L858R/C797S, 100 μM ATP).
Turning to `CC(C)(O)[C@H]1CC[C@@H](Nc2cc(Nc3ccnc(-c4cnn(S(=O)(=O)C5CC5)c4)n3)ncc2-c2ccc(N3CC(F)(F)C3)cn2)CC1` [Example 225, 2-((1s,4s)-4-((6′-((2-(1-(Cyclopropylsulfonyl)-1H-pyrazol-4-yl)pyrimidin-4-yl)amino)-5-(3,3-difluoroazetidin-1-yl)-[2,3′-bipyridin]-4′-yl)amino)cyclohexyl)propan-2-ol], the IC50 was determined as 6.9 nM in assay [1] (setting [6]); 6 nM in assay [1] (read-out: IC50 del19/T790M/C797S, 100 μM ATP); 2.5 nM in assay [2] (setting [8]); 4.4 nM in assay [2] (read-out: IC50 L858R/T790M/C797S, 100 μM ATP); 16.1 nM in assay [3] (setting [10]); 19.8 nM in assay [3] (read-out: IC50 del19/C797S, 100 μM ATP). The IC50 in assay [4] (setting [11]) was 33.8 nM; in assay [4] (read-out: IC50 WT, 100 μM ATP), greater than 10000 nM; in assay [5] (setting [12]), 10.2 nM; in assay [5] (read-out: IC50 L858R/C797S, 100 μM ATP), 799 nM.
With `CC1(O)CCC(Nc2cc(Nc3ccnc(-c4cnn(S(=O)(=O)C5CC5)c4)n3)ncc2-c2ccc(C(O)C(F)(F)F)cn2)CC1` (stereo not shown) [Example 226, (1s,4s)-4-((6′-((2-(1-(Cyclopropylsulfonyl)-1H-pyrazol-4-yl)pyrimidin-4-yl)amino)-5-(2,2,2-trifluoro-1-hydroxyethyl)-[2,3′-bipyridin]-4′-yl)amino)-1-methylcyclohexan-1-ol], the IC50 in assay [1] (setting [6]) worked out at 0.8 nM; in assay [1] (setting [7]), 0.8 nM; in assay [2] (setting [8]) it was 0.3 nM; in assay [2] (setting [9]) it was 0.5 nM; in assay [3] (IC50 del19/C797S, 100 μM ATP) it was 4.7 nM; in assay [4] (setting [11]), 4.9 nM. For the same molecule, the IC50 in assay [4] (IC50 WT, 100 μM ATP) was 5120 nM; in assay [5] (setting [12]) it was 2 nM; in assay [5] (IC50 L858R/C797S, 100 μM ATP), 8.4 nM.
As to `O=S(=O)(C1CC1)n1cc(-c2nccc(Nc3cc(NC4CCC(CO)CC4)c(-c4ccc(C(O)C(F)(F)F)cn4)cn3)n2)cn1` (stereo not shown) [Example 227, 1-(6′-((2-(1-(Cyclopropylsulfonyl)-1H-pyrazol-4-yl)pyrimidin-4-yl)amino)-4′-(((1s,4s)-4-(hydroxymethyl)cyclohexyl)amino)-[2,3′-bipyridin]-5-yl)-2,2,2-trifluoroethan-1-ol], the IC50 in assay [1] (setting [6]) came out at 0.9 nM; in assay [2] (setting [8]), 0.4 nM; in assay [2] (setting [9]) it was 0.8 nM; in assay [3] (setting [10]), 1.9 nM; in assay [3] (IC50 del19/C797S, 100 μM ATP), 7 nM; in assay [4] (setting [11]) it was 5.2 nM. The IC50 in assay [4] (IC50 WT, 100 μM ATP) amounted to 835 nM; in assay [5] (setting [12]), 2.5 nM; in assay [5] (IC50 L858R/C797S, 100 μM ATP), 10 nM.
On to `O=S(=O)(C1CC1)n1cc(-c2nccc(Nc3cc(N[C@H]4CCC[C@H](CO)C4)c(-c4ccc(C(O)C(F)(F)F)cn4)cn3)n2)cn1` (stereo partly drawn) [Example 228, 1-(6′-((2-(1-(Cyclopropylsulfonyl)-1H-pyrazol-4-yl)pyrimidin-4-yl)amino)-4′-(((1S,3S)-3-(hydroxymethyl)cyclohexyl)amino)-[2,3′-bipyridin]-5-yl)-2,2,2-trifluoroethan-1-ol], for which the IC50 in assay [1] (setting [6]) is 1.9 nM; in assay [1] (setting [7]) it was 2.9 nM; in assay [2] (setting [8]), 0.5 nM; in assay [2] (setting [9]) it was 1 nM; in assay [3] (setting [10]), 5.6 nM; in assay [3] (IC50 del19/C797S, 100 μM ATP), 14.3 nM. The IC50 in assay [4] (setting [11]) is 19.3 nM; in assay [4] (IC50 WT, 100 μM ATP) it was greater than 10000 nM; in assay [5] (setting [12]), 12.2 nM; in assay [5] (IC50 L858R/C797S, 100 μM ATP) it was 64.9 nM.
Regarding `CC(C)(O)C1CCC(Nc2cc(Nc3ccnc(-c4cnn(S(=O)(=O)C5CC5)c4)n3)ncc2-c2ccc(C(O)C(F)(F)F)cn2)CC1` (stereo not shown) [Example 229, 2-((1s,4s)-4-((6′-((2-(1-(Cyclopropylsulfonyl)-1H-pyrazol-4-yl)pyrimidin-4-yl)amino)-5-(2,2,2-trifluoro-1-hydroxyethyl)-[2,3′-bipyridin]-4′-yl)amino)cyclohexyl)propan-2-ol], the IC50 in assay [1] (setting [6]) turned out to be 3.3 nM; in assay [1] (setting [7]) it was 4.4 nM; in assay [2] (setting [8]), 0.9 nM; in assay [2] (setting [9]), 1.9 nM; in assay [3] (setting [10]), 4.8 nM; in assay [3] (IC50 del19/C797S, 100 μM ATP), 20.8 nM. For the same molecule, the IC50 in assay [4] (setting [11]) worked out at 17.4 nM; in assay [4] (IC50 WT, 100 μM ATP), 9480 nM; in assay [5] (setting [12]), 11.5 nM; in assay [5] (IC50 L858R/C797S, 100 μM ATP), 96.1 nM.
In the case of `CC1(O)CCC(Nc2cc(Nc3ccnc(-c4cnn(S(=O)(=O)C5CC5)c4)n3)ncc2-c2ccc(C(C)(O)C(F)(F)F)cn2)CC1` (stereo not shown) [Example 230, (1s,4s)-4-((6′-((2-(1-(Cyclopropylsulfonyl)-1H-pyrazol-4-yl)pyrimidin-4-yl)amino)-5-(1,1,1-trifluoro-2-hydroxypropan-2-yl)-[2,3′-bipyridin]-4′-yl)amino)-1-methylcyclohexan-1-ol], the IC50 was 1.1 nM in assay [1] (setting [6]); 0.4 nM in assay [2] (setting [8]); 0.6 nM in assay [2] (setting [9]); 1.7 nM in assay [3] (setting [10]); 6 nM in assay [3] (IC50 del19/C797S, 100 μM ATP); 5 nM in assay [4] (setting [11]). For the same molecule, the IC50 in assay [4] (IC50 WT, 100 μM ATP) was 1660 nM; in assay [5] (setting [12]), 2.4 nM; in assay [5] (IC50 L858R/C797S, 100 μM ATP), 7.8 nM.
As to `CC(O)(c1ccc(-c2cnc(Nc3ccnc(-c4cnn(S(=O)(=O)C5CC5)c4)n3)cc2NC2CCC(CO)CC2)nc1)C(F)(F)F` (stereo not shown) [Example 231, 2-(6′-((2-(1-(Cyclopropylsulfonyl)-1H-pyrazol-4-yl)pyrimidin-4-yl)amino)-4′-(((1s,4s)-4-(hydroxymethyl)cyclohexyl)amino)-[2,3′-bipyridin]-5-yl)-1,1,1-trifluoropropan-2-ol], the IC50 in assay [1] (setting [6]) stood at 1.4 nM; in assay [1] (setting [7]), 2 nM; in assay [2] (setting [8]), 0.4 nM; in assay [2] (setting [9]), 0.9 nM; in assay [3] (setting [10]), 1.7 nM; in assay [3] (IC50 del19/C797S, 100 μM ATP), 6.4 nM. In addition, the IC50 worked out at 4.1 nM in assay [4] (setting [11]); 502 nM in assay [4] (IC50 WT, 100 μM ATP); 1.2 nM in assay [5] (setting [12]); 4.6 nM in assay [5] (IC50 L858R/C797S, 100 μM ATP).
In the case of `CC(O)(c1ccc(-c2cnc(Nc3ccnc(-c4cnn(S(=O)(=O)C5CC5)c4)n3)cc2N[C@H]2CCC[C@H](CO)C2)nc1)C(F)(F)F` (stereo partly drawn) [Example 232, 2-(6′-((2-(1-(Cyclopropylsulfonyl)-1H-pyrazol-4-yl)pyrimidin-4-yl)amino)-4′-(((1S,3S)-3-(hydroxymethyl)cyclohexyl)amino)-[2,3′-bipyridin]-5-yl)-1,1,1-trifluoropropan-2-ol], the IC50 in assay [1] (setting [6]) was 3.9 nM; in assay [1] (setting [7]), 2.1 nM; in assay [2] (setting [8]), 0.8 nM; in assay [2] (setting [9]), 0.8 nM; in assay [3] (setting [10]), 3.3 nM; in assay [3] (IC50 del19/C797S, 100 μM ATP), 9.5 nM. The IC50 in assay [4] (setting [11]) was 19 nM; in assay [4] (IC50 WT, 100 μM ATP), 8760 nM; in assay [5] (setting [12]), 6.7 nM; in assay [5] (IC50 L858R/C797S, 100 μM ATP), 60.2 nM.
Consider `CC(C)(O)C1CCC(Nc2cc(Nc3ccnc(-c4cnn(S(=O)(=O)C5CC5)c4)n3)ncc2-c2ccc(C(C)(O)C(F)(F)F)cn2)CC1` (stereo not shown) [Example 233, 2-(6′-((2-(1-(Cyclopropylsulfonyl)-1H-pyrazol-4-yl)pyrimidin-4-yl)amino)-4′-(((1s,4s)-4-(2-hydroxypropan-2-yl)cyclohexyl)amino)-[2,3′-bipyridin]-5-yl)-1,1,1-trifluoropropan-2-ol], for which the IC50 was found to be 4.7 nM in assay [1] (setting [6]); 6.3 nM in assay [1] (setting [7]); 0.9 nM in assay [2] (setting [8]); 2.7 nM in assay [2] (setting [9]); 7.1 nM in assay [3] (setting [10]); 19.2 nM in assay [3] (IC50 del19/C797S, 100 μM ATP). The IC50 in assay [4] (setting [11]) was 18.3 nM; in assay [4] (IC50 WT, 100 μM ATP), 6750 nM; in assay [5] (setting [12]), 4.7 nM; in assay [5] (IC50 L858R/C797S, 100 μM ATP) it was 36 nM.

These data come from patent publication US12258328B2, “6-membered heteroaryl-containing aminopyridine compounds as EGFR inhibitors” (YUHAN CORPORATION, priority 2021, dated 2025).
